How the values were obtained:
[1] = target: BSA (Bovine Serum Albumin) (Bos taurus, UniProt P02769); assay: Conductivity test: surfactant binding to BSA protein; settings: 10% SDS with 10% oil (1:1) or 10% SDS alone; 0.5% BSA in 0.02M acetate buffer pH~5.2, room temperature
Experimental: Conductance measurements were carried out at room temperature by use of a Thermo conductivity meter, model Orion 150+. Routinely, the titrations were performed by adding a controlled amount of 10% of stock surfactant solution under magnetic stirring into the 0.5% BSA (Bovine Serum Albumin) in 0.02M acetate buffer at pH˜5.2. Values of CMC (critical micellization concentration), CAC (critical aggregation concentration) and protein saturation point (PSP) were defined by the changing of the slope of the conductivity vs. surfactant concentration plots. The number of surfactants binding to each protein can be calculated by: {[PSP]−[CAC]}/{[protein]/Mwprotein}, where [protein] is the protein concentration.
In order to show the effect of benefit agent having different polarity on binding to protein molecule (a reflection of the harshness of surfactant; more surfactant binding to protein equal harsher and more damage expected), applicants tested surfactant binding of (1) surfactant alone and (2) of surfactant in combination with various oils/cosolvents (at 1:1 surfactant to oil ratio) to see level of (how many) surfactants binding per protein molecule (e.g., BSA) at saturation. The tests were done using conductivity test described in protocol and results are set forth below in Table 1.
Applicants conducted same test as in Examples 1 to 10, but used SLES/CAPB surfactant system instead of SDS.

BSA protein = BSA protein (Bos taurus, UniProt P02769); assay: Micro-DSC for protein denaturation; parameters: species or system Bovine; settings: denaturation enthalpy approaching zero, FIG. 5
Experimental: 1.2% of BSA acetate buffer solution was prepared (pH 5.2, IS 0.02). […] Then the BSA acetate solution was titrated with either oil, or surfactant, or oil/surfactant at 1:1 ratio. After each titration, a DSC measurement was performed.

BSA protein, sequence (P02769 25-607): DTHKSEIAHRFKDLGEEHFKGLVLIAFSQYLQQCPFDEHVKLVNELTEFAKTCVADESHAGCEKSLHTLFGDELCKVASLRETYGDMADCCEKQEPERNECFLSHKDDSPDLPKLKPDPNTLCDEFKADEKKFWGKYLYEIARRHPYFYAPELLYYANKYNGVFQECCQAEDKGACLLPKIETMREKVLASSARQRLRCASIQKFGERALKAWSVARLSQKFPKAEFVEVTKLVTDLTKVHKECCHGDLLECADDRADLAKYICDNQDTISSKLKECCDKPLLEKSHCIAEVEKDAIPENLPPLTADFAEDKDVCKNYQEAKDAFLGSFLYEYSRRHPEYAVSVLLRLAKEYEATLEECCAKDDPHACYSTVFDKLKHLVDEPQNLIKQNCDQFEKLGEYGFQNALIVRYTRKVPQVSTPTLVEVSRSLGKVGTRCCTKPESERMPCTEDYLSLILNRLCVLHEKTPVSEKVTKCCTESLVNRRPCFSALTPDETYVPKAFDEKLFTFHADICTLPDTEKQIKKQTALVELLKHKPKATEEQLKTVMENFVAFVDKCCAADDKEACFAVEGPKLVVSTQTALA
BSA (Bovine Serum Albumin), sequence (P02769 25-607): as above

## CCCCCCCCCCCCOS(=O)(=O)[O-].[Na+] [10% SDS (surfactant alone), Sodium dodecyl sulfate]
[1]
  Saturated binding: No. of surfactant per BSA at saturation: 220
BSA protein
  ratio surfactant to protein at which BSA protein is fully denatured at room temperature: about 1.2
